# From patent publication US12655116B2, “Substituted isophthalic acid diamides” (Bayer Aktiengesellschaft, priority 2020, dated 2026)
# Legend:
# PHBPU [1] = experiment: Pre-emergence herbicidal action against PHBPU; assay type: in vivo, Pharbitis purpurea
# Summary of the method: (§1)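 Sandy loam pots, seeds covered with soil, then surface-treated with WP or EC formulations at 600–800 l/ha water plus 0.2% wetting agent. Greenhouse, 3 weeks. Percent damage vs untreated controls.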
# AMARE [2] = experiment: Post-emergence herbicidal action against AMARE; assay type: in vivo, Amaranthus retroflexus; conditions: 20 g/ha, visual assessment about 3 weeks after treatment, 100% = plants have died, 0% = like control plants
# Summary of the method: (§2)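 Herbicidal action is a visual percentage rating (0% = as untreated control, 100% = plants dead) made roughly 3 weeks after treatment. Plants were grown in sandy loam in the greenhouse and treated at the one-leaf stage, 2 to 3 weeks post-sowing. Treatment was a foliar spray of wettable-powder or emulsion-concentrate formulations at 600 to 800 l/ha water plus 0.2% wetting agent.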
# PHBPU [3] = experiment: Post-emergence herbicidal action against PHBPU; assay type: in vivo, Pharbitis purpurea; conditions: dosage 20 g/ha
# Summary of the method: as §2
# ECHCG [4] = experiment: Pre-emergence herbicidal action against ECHCG; assay type: in vivo, Echinochloa crus-galli
# Summary of the method: as §1
# DIGSA [5] = experiment: Pre-emergence herbicidal action against DIGSA; assay type: in vivo, Digitaria sanguinalis
# Summary of the method: as §1
# ECHCG [6] = experiment: Post-emergence herbicidal action against ECHCG; assay type: in vivo, Echinochloa crus-galli
# Summary of the method: as §2
# ALOMY [7] = experiment: Post-emergence herbicidal action against ALOMY; assay type: in vivo, Alopecurus myosuroides; conditions: dosage 20 g/ha, visual assessment about 3 weeks after treatment vs untreated controls
# Summary of the method: as §2
# MATIN [8] = experiment: Pre-emergence herbicidal action against MATIN; assay type: in vivo, Matricaria inodora
# Summary of the method: as §1
# AVEFA = experiment: Pre-emergence herbicidal action against AVEFA; assay type: in vivo, Avena fatua
# Summary of the method: as §1
# SETVI [9] = experiment: Post-emergence herbicidal action against SETVI; assay type: in vivo, Setaria viridis
# Summary of the method: as §2
# VERPE [10] = experiment: Post-emergence herbicidal action against VERPE; assay type: in vivo, Veronica persica
# Summary of the method: as §2
# VIOTR [11] = experiment: Post-emergence herbicidal action against VIOTR; assay type: in vivo, Viola tricolor
# Summary of the method: as §2
# SETVI [12] = experiment: Pre-emergence herbicidal action against SETVI; assay type: in vivo, Setaria viridis
# Summary of the method: as §1
# MATIN [13] = experiment: Post-emergence herbicidal action against MATIN; assay type: in vivo, Matricaria inodora
# Summary of the method: as §2
# VIOTR [14] = experiment: Pre-emergence herbicidal action against VIOTR; assay type: in vivo, Viola tricolor
# Summary of the method: as §1
# AMARE [15] = experiment: Pre-emergence herbicidal action against AMARE; assay type: in vivo, Amaranthus retroflexus
# Summary of the method: as §1
# ALOMY [16] = experiment: Pre-emergence herbicidal action against ALOMY; assay type: in vivo, Alopecurus myosuroides; conditions: 80 g/ha, pre-emergence, scored visually after 3 weeks vs untreated controls (100% = plants have died, 0% = like control plants)
# Summary of the method: as §1
# ABUTH [17] = experiment: Pre-emergence herbicidal action against ABUTH; assay type: in vivo, Abutilon theophrasti
# Summary of the method: as §1
# ABUTH [18] = experiment: Post-emergence herbicidal action against ABUTH; assay type: in vivo, Abutilon theophrasti; conditions: visual assessment about 3 weeks after treatment vs untreated controls
# Summary of the method: as §2
# DIGSA [19] = experiment: Post-emergence herbicidal action against DIGSA; assay type: in vivo, Digitaria sanguinalis
# Summary of the method: as §2
# VERPE [20] = experiment: Pre-emergence herbicidal action against VERPE; assay type: in vivo, Veronica persica; conditions: dosage 80 g/ha
# Summary of the method: as §1
# POLCO = experiment: Pre-emergence herbicidal action against POLCO; assay type: in vivo, Polygonum convolvulus; conditions: dosage 80 g/ha
# Excerpt: Seeds of monocotyledonous and dicotyledonous weed plants and crop plants are laid out in sandy loam soil in wood-fiber pots and covered with soil. The compounds of the invention, formulated in the form of wettable powders (WP) or as emulsion concentrates (EC), are then applied to the surface of the covering soil in the form of an aqueous suspension or emulsion at a water application rate equivalent to 600 to 800 l/ha, with addition of 0.2% wetting agent. After the treatment, the pots are placed in a greenhouse and kept under good growth conditions for the trial plants. The damage to the test plants is scored visually after a test period of 3 weeks by comparison with untreated controls (herbicidal activity in percent (%): 100% activity=the plants have died, 0% activity=like control plants). […] The tables below illustrate, in an illustrative manner, the post-emergence herbicidal action of the compounds of the invention, the herbicidal activity being stated in percent.
# [21] = Tripleurospermum inodorum, 504 h, dosage 20 g/ha
# [22] = Setaria viridis, 504 h, dosage 20 g/ha
# [23] = 20 g/ha, scored visually after 3 weeks vs untreated controls, 100% = plants have died, 0% = like control plants
# [24] = 80 g/ha, scored visually after 3 weeks vs untreated controls (100% = plants have died, 0% = like control plants)
smiles,measurement,setting,value
CCNC(=O)c1c(C(F)(F)F)ccc(C(=O)Nc2nnnn2C)c1OC [Example 1-57],pest or weed control at 20 g/ha,"PHBPU [1]; Ipomoea purpurea, 504 h, dosage 20 g/ha",80%
same,pest or weed control at 80 g/ha,"PHBPU [1]; Ipomoea purpurea, 504 h, dosage 80 g/ha",80%
same,pest or weed control at 20 g/ha,"AMARE [2]; Amaranthus retroflexus, 504 h",100%
same,pest or weed control at 20 g/ha,"PHBPU [3]; Ipomoea purpurea, 504 h",90%
same,pest or weed control at 20 g/ha,"ECHCG [4]; Echinochloa crus-galli, 504 h, 20 g/ha",90%
same,pest or weed control at 80 g/ha,"ECHCG [4]; Echinochloa crus-galli, 504 h, 80 g/ha",90%
same,pest or weed control at 20 g/ha,"DIGSA [5]; Digitaria sanguinalis, 504 h, dosage 20 g/ha",100%
same,pest or weed control at 80 g/ha,"DIGSA [5]; Digitaria sanguinalis, 504 h, dosage 80 g/ha",100%
same,pest or weed control at 5 g/ha,"ECHCG [6]; Echinochloa crus-galli, 504 h, dosage 5 g/ha",80%
same,pest or weed control at 20 g/ha,"ECHCG [6]; Echinochloa crus-galli, 504 h, dosage 20 g/ha",100%
same,pest or weed control at 20 g/ha,"ALOMY [7]; Alopecurus myosuroides, 504 h",80%
same,pest or weed control at 20 g/ha,MATIN [8]; [21],90%
same,pest or weed control at 80 g/ha,"MATIN [8]; Tripleurospermum inodorum, 504 h, dosage 80 g/ha",100%
same,pest or weed control at 80 g/ha,"AVEFA; Avena fatua, 504 h, 80 g/ha, pre-emergence",90%
same,pest or weed control at 5 g/ha,"SETVI [9]; Setaria viridis, 504 h, dosage 5 g/ha",100%
same,pest or weed control at 20 g/ha,SETVI [9]; [22],100%
same,pest or weed control at 5 g/ha,"VERPE [10]; Veronica persica, 504 h, 5 g/ha",80%
same,pest or weed control at 20 g/ha,"VERPE [10]; Veronica persica, 504 h, 20 g/ha",90%
same,pest or weed control at 5 g/ha,"VIOTR [11]; Viola tricolor, 504 h, 5 g/ha",100%
same,pest or weed control at 20 g/ha,"VIOTR [11]; Viola tricolor, 504 h, 20 g/ha",100%
same,pest or weed control at 20 g/ha,SETVI [12]; [22],90%
same,pest or weed control at 80 g/ha,"SETVI [12]; Setaria viridis, 504 h, dosage 80 g/ha",100%
same,pest or weed control at 5 g/ha,"MATIN [13]; Tripleurospermum inodorum, 504 h, dosage 5 g/ha",80%
same,pest or weed control at 20 g/ha,MATIN [13]; [21],90%
same,pest or weed control at 20 g/ha,"VIOTR [14]; Viola tricolor, 504 h, dosage 20 g/ha",100%
same,pest or weed control at 80 g/ha,"VIOTR [14]; Viola tricolor, 504 h, dosage 80 g/ha",100%
same,pest or weed control at 20 g/ha,"AMARE [15]; Amaranthus retroflexus, 504 h, 20 g/ha, scored visually after 3 weeks vs untreated controls, 100% = plants have died, 0% = like control plants",100%
same,pest or weed control at 80 g/ha,"AMARE [15]; Amaranthus retroflexus, 504 h, 80 g/ha, scored visually after 3 weeks vs untreated controls, 100% = plants have died, 0% = like control plants",100%
same,pest or weed control at 80 g/ha,"ALOMY [16]; Alopecurus myosuroides, 504 h",80%
same,pest or weed control at 80 g/ha,"ABUTH [17]; Abutilon theophrasti, 504 h, 80 g/ha, scored visually after 3 weeks vs untreated controls (100% = plants have died, 0% = like control plants)",100%
same,pest or weed control at 20 g/ha,"ABUTH [17]; Abutilon theophrasti, 504 h, dosage 20 g/ha, scored visually after 3 weeks vs untreated controls, 100% = plants have died, 0% = like control plants, read-out: Pre-emergence action against ABUTH (herbicidal activity in percent)",100%
same,pest or weed control at 5 g/ha,"ABUTH [18]; Abutilon theophrasti, 504 h, dosage 5 g/ha",90%
same,pest or weed control at 20 g/ha,"ABUTH [18]; Abutilon theophrasti, 504 h, dosage 20 g/ha",90%
same,pest or weed control at 5 g/ha,"DIGSA [19]; Digitaria sanguinalis, 504 h, 5 g/ha",100%
same,pest or weed control at 20 g/ha,"DIGSA [19]; Digitaria sanguinalis, 504 h, 20 g/ha",100%
same,pest or weed control at 80 g/ha,"VERPE [20]; Veronica persica, 504 h",80%
Cc1nnc(NC(=O)c2ccc(C(F)F)c(C(=O)NCC(F)F)c2Br)o1 [Example 6-169],Post-emergence action at 20 g/ha against AMARE in %,AMARE [2],90%
same,Pre-emergence action against ECHCG in %,ECHCG [4]; 80 g/ha,90%
same,Pre-emergence action against DIGSA in %,DIGSA [5]; dosage 80 g/ha,90%
same,Post-emergence action against ECHCG in %,ECHCG [6]; dosage 5 g/ha,80%
same,Post-emergence action against ECHCG in %,ECHCG [6]; dosage 20 g/ha,90%
same,Pre-emergence action against MATIN in %,MATIN [8]; dosage 80 g/ha,80%
same,Post-emergence action against SETVI in %,SETVI [9]; dosage 20 g/ha,90%
same,Pre-emergence action against SETVI in %,SETVI [12]; dosage 80 g/ha,100%
same,Pre-emergence action against POLCO in %,POLCO,100%
same,Pre-emergence action against AMARE in %,AMARE [15]; [23],90%
same,Pre-emergence action against AMARE in %,AMARE [15]; [24],100%
same,Pre-emergence action against ABUTH (herbicidal activity),ABUTH [17]; [24],90%
CC(NC(=O)c1c(C(F)(F)F)ccc(C(=O)Nc2nnnn2C)c1Cl)C1CC1 (stereo not shown) [Example 1-135],Pre-emergence action against PHBPU in %,PHBPU [1]; dosage 80 g/ha,80%
same,Post-emergence action at 20 g/ha against AMARE in %,AMARE [2],90%
same,Post-emergence action against PHBPU in %,PHBPU [3],90%
same,Pre-emergence action against ECHCG in %,ECHCG [4]; 20 g/ha,80%
same,Pre-emergence action against ECHCG in %,ECHCG [4]; 80 g/ha,100%
same,Pre-emergence action against DIGSA in %,DIGSA [5]; dosage 20 g/ha,90%
same,Pre-emergence action against DIGSA in %,DIGSA [5]; dosage 80 g/ha,100%
same,Post-emergence action against ECHCG in %,ECHCG [6]; dosage 5 g/ha,80%
same,Post-emergence action against ECHCG in %,ECHCG [6]; dosage 20 g/ha,100%
same,Post-emergence action against ALOMY in %,ALOMY [7],90%
same,Pre-emergence action against MATIN in %,MATIN [8]; dosage 20 g/ha,90%
same,Pre-emergence action against MATIN in %,MATIN [8]; dosage 80 g/ha,100%
same,Pre-emergence action against AVEFA,"AVEFA; 20 g/ha, scored visually after 3 weeks, 100% = plants have died, 0% = like control plants",80%
same,Pre-emergence action against AVEFA in %,"AVEFA; 80 g/ha, pre-emergence",100%
same,Post-emergence action against SETVI in %,SETVI [9]; dosage 20 g/ha,80%
same,Post-emergence action against VERPE in %,VERPE [10]; 5 g/ha,80%
same,Post-emergence action against VERPE in %,VERPE [10]; 20 g/ha,90%
same,Post-emergence action against VIOTR in %,VIOTR [11]; 5 g/ha,80%
same,Post-emergence action against VIOTR in %,VIOTR [11]; 20 g/ha,90%
same,Pre-emergence action against SETVI in %,SETVI [12]; dosage 80 g/ha,100%
same,Post-emergence action against MATIN in %,MATIN [13]; dosage 5 g/ha,80%
same,Post-emergence action against MATIN in %,MATIN [13]; dosage 20 g/ha,90%
same,Pre-emergence action against VIOTR in %,VIOTR [14]; dosage 80 g/ha,100%
same,Pre-emergence action against AMARE in %,AMARE [15]; [23],100%
same,Pre-emergence action against AMARE in %,AMARE [15]; [24],100%
same,Pre-emergence action against ALOMY (herbicidal activity),ALOMY [16],90%
same,Pre-emergence action against ABUTH (herbicidal activity),ABUTH [17]; [24],100%
same,Pre-emergence action against ABUTH (herbicidal activity in percent),"ABUTH [17]; dosage 20 g/ha, scored visually after 3 weeks vs untreated controls, 100% = plants have died, 0% = like control plants",100%
same,Post-emergence action against ABUTH in %,ABUTH [18]; dosage 20 g/ha,80%
same,Post-emergence action against DIGSA,DIGSA [19]; 20 g/ha,90%
same,Pre-emergence action against VERPE in %,VERPE [20],90%
CCn1nnnc1NC(=O)c1ccc(C(F)(F)F)c(C(=O)NCCSC)c1C [Example 2-35],Pre-emergence action against MATIN in %,MATIN [8]; dosage 80 g/ha,80%
same,Pre-emergence action against POLCO in %,POLCO,80%
same,Pre-emergence action against AMARE in %,AMARE [15]; [24],90%
